Laboratory results published in ChEMBL document CHEMBL1641552 (Bioorg Med Chem Lett, 2011).

Columns and labels:
Neuraminidase [1] = target: T1, Neuraminidase (Influenza A virus, UniProt B4URF0); experiment: Inhibition of Influenza A H1N1 virus neuraminidase activity after 2 hrs by spectrofluorometry
Neuraminidase [2] = target: T1, Neuraminidase; experiment: Inhibition of Influenza A H9N2 virus neuraminidase activity after 2 hrs by spectrofluorometry
Neuraminidase [3] = target: T1, Neuraminidase; experiment: Noncompetitive inhibition of Influenza A H1N1 virus neuraminidase activity by Lineweaver-Burk plot analysis
Sialidase = target: T2, Sialidase (Clostridium perfringens, UniProt P10481); experiment: Inhibition of Clostridium perfringens neuraminidase
T2 sequence (P10481 whole entry): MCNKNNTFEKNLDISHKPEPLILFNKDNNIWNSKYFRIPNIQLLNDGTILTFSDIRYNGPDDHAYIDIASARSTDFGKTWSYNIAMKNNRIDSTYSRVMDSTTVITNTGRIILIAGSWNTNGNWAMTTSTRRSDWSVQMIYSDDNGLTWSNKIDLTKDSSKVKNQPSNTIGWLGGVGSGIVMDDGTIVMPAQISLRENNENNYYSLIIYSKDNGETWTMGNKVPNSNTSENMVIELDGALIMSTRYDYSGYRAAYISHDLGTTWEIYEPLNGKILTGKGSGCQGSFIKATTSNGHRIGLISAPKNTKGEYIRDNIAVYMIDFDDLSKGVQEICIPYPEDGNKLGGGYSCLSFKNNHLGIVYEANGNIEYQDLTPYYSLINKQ

Neuraminidase [4] = target: T1, Neuraminidase; format: cell-based, H1N1 swine influenza virus, HEK-293T

Structure (SMILES)	IC50 (Neuraminidase [1])	IC50 (Neuraminidase [2])	IC50 (Neuraminidase [3])	IC50 (Sialidase)	IC50 (Neuraminidase [4])
CC(C)=CCc1cc(/C=C/C(=O)c2ccc(O)cc2O)cc(O)c1O [5'-PRENYLBUTEIN]	76 µM	104 µM	96.3 µM	9.25 µM	
COc1cc(O)ccc1/C=C/C(=O)c1ccc(O)cc1 [ECHINATIN]	21.5 µM	21.1 µM	30.4 µM		9.21 µM
O=C(/C=C/c1ccc(O)cc1)c1ccc(O)cc1O [ISOLIQUIRITIGENIN]				44 µM	
CC(C)=CCc1cc(/C=C/C(=O)c2ccc(O)c(CC=C(C)C)c2O)ccc1O [KANZONOL C]	192 µM	135 µM	212 µM	1.12 µM	
C=CC(C)(C)c1cc(/C=C/C(=O)c2ccc(O)cc2)c(OC)cc1O [LICOAGROCHACONE A]	56.4 µM	53.1 µM	53.9 µM	20.4 µM	16 µM
CC(C)=CCc1cc(/C=C/C(=O)c2ccc(O)cc2O)ccc1O [LICOAGROCHALCONE A]	159 µM	175 µM	185 µM	1.6 µM	
COc1c(/C=C/C(=O)c2ccc(O)c(CC=C(C)C)c2)ccc(O)c1O [LICOCHALCONE D]	80.8 µM	99.4 µM	103 µM	3.33 µM	
C=CC(C)(C)c1cc(/C=C/C(=O)c2ccc(O)cc2O)c(OC)cc1O [LICOCHALCONE G]	106 µM	119 µM	117 µM	2.37 µM	
